This passage reports EC50 results from BindingDB's records for PubMed 38436272 (Sorbonne University, 2024).

For this assay, the target named is Forkhead box protein O3 (Homo sapiens, UniProt O43524). The assay can be described thus: Induction of nuclear translocation of FOXO3 in human U2OS cells by inverted microscopic analysis.

The structures appear in SMILES notation.

Sequence of Forkhead box protein O3 (O43524 whole entry): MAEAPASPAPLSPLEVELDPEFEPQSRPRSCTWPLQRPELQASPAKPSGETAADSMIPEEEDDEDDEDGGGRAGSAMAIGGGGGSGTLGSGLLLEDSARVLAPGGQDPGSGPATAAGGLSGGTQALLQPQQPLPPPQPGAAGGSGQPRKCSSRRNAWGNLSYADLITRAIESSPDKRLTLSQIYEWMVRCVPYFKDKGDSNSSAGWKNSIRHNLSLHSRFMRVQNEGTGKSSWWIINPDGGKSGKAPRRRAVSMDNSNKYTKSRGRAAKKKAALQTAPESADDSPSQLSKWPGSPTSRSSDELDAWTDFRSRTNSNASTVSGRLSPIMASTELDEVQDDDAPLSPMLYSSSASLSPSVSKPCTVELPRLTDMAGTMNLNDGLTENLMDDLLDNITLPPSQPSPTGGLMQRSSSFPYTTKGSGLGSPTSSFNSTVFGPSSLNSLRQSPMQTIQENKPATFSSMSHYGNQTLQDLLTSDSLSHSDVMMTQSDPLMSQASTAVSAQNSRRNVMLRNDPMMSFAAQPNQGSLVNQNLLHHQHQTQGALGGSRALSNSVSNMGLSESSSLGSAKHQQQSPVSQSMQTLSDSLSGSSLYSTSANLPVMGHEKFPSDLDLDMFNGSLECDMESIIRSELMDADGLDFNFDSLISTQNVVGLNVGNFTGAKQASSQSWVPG

As for `COc1cc(/C=C/C(=O)N2CCC=CC2=O)cc(OC)c1OC` [CHEBI:8241], the response was half-maximal at 37.7 µM (EC50).
